8 cell lines from the supplement of paper PMC10307832 can be followed below.

Common to all, as to test: relative viability (nuclei count vs DMSO), 5 days (fraction); higher = more cells survive
Compound in the assay “Ponatinib + Phenformin”: Cc1ccc(C(=O)Nc2ccc(CN3CCN(C)CC3)c(C(F)(F)F)c2)cc1C#Cc1cnc2cccnn12 [Ponatinib] + N=C(N)NC(=N)NCCc1ccccc1 [Phenformin] (partner 250 µM)
The procedure, abridged:
(§1)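 Nuclei were stained with Hoechst during a one-step fixation (final 0.05% Triton X-100, 1% formaldehyde, 1 ug/ml Hoechst) carried out 5 days after dosing, then counted on 4× images. The cells, lung cancer lines in 1536-well plates, had been dosed by pin tool the day after seeding with one drug alone or a fixed anchor-drug dose plus five library-drug doses (not always all listed) in √10 steps. Relative viability is the nuclei count in treated wells divided by that in vehicle wells, and each value is the median of duplicate plates.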

Compound in the assay “Ponatinib + Luminespib”: Cc1ccc(C(=O)Nc2ccc(CN3CCN(C)CC3)c(C(F)(F)F)c2)cc1C#Cc1cnc2cccnn12 [Ponatinib] + CCNC(=O)c1noc(-c2cc(C(C)C)c(O)cc2O)c1-c1ccc(CN2CCOCC2)cc1 [Luminespib] (partner 0.01 µM)
In a few lines:
as §1

Compound in the assay “Ponatinib + Decitabine”: Cc1ccc(C(=O)Nc2ccc(CN3CCN(C)CC3)c(C(F)(F)F)c2)cc1C#Cc1cnc2cccnn12 [Ponatinib] + Nc1ncn([C@H]2C[C@H](O)[C@@H](CO)O2)c(=O)n1 [Decitabine] (partner 2 µM)
In a few lines:
as §1

Compound in the assay “Pazopanib + Linsitinib”: Cc1ccc(Nc2nccc(N(C)c3ccc4c(C)n(C)nc4c3)n2)cc1S(N)(=O)=O [Pazopanib] + C[C@]1(O)C[C@@H](c2nc(-c3ccc4ccc(-c5ccccc5)nc4c3)c3c(N)nccn32)C1 [Linsitinib] (partner 1 µM)
In a few lines: as §1

Regarding BEN, the relative viability came to 0.253 with Ponatinib + Phenformin (first compound 0.002 µM); 0.288 in the assay with Ponatinib + Phenformin (first compound 0.006325 µM); 0.253 in the assay with Ponatinib + Phenformin (first compound 0.06325 µM); 0.264 in the assay with Ponatinib + Phenformin (first compound 0.2 µM); 0.259 with Ponatinib + Luminespib (first compound 0.002 µM); 0.296 with Ponatinib + Luminespib (first compound 0.006325 µM). Also, the relative viability worked out at 0.24 in the assay with Ponatinib + Luminespib (first compound 0.06325 µM); 0.576 in the assay with Ponatinib + Luminespib (first compound 0.2 µM); 0.723 with Ponatinib + Decitabine (first compound 0.002 µM); 0.687 with Ponatinib + Decitabine (first compound 0.006325 µM); 0.699 with Ponatinib + Decitabine (first compound 0.06325 µM); 0.656 in the assay with Ponatinib + Decitabine (first compound 0.2 µM). For the same cell line, the relative viability with Pazopanib + Linsitinib (first compound 0.01 µM) came to 0.819; in the assay with Pazopanib + Linsitinib (first compound 0.03162 µM), 0.969; with Pazopanib + Linsitinib (first compound 0.1 µM) it was 0.894; with Pazopanib + Linsitinib (first compound 0.3162 µM), 0.956; in the assay with Pazopanib + Linsitinib (first compound 1 µM) it was 0.898.

In the case of LCLC-103H, the relative viability amounted to 0.275 with Ponatinib + Phenformin (first compound 0.002 µM); 0.347 with Ponatinib + Phenformin (first compound 0.006325 µM); 0.312 in the assay with Ponatinib + Phenformin (first compound 0.06325 µM); 0.295 with Ponatinib + Phenformin (first compound 0.2 µM); 0.928 with Ponatinib + Luminespib (first compound 0.002 µM); 0.974 in the assay with Ponatinib + Luminespib (first compound 0.006325 µM). The relative viability is 0.908 with Ponatinib + Luminespib (first compound 0.06325 µM); 0.733 with Ponatinib + Luminespib (first compound 0.2 µM); 0.713 in the assay with Ponatinib + Decitabine (first compound 0.002 µM); 0.693 in the assay with Ponatinib + Decitabine (first compound 0.006325 µM); 0.759 in the assay with Ponatinib + Decitabine (first compound 0.06325 µM); 0.722 with Ponatinib + Decitabine (first compound 0.2 µM). The relative viability in the assay with Pazopanib + Linsitinib (first compound 0.01 µM) is 0.846; with Pazopanib + Linsitinib (first compound 0.03162 µM), 1.22; with Pazopanib + Linsitinib (first compound 0.1 µM) it was 1.06; with Pazopanib + Linsitinib (first compound 0.3162 µM), 1.04; in the assay with Pazopanib + Linsitinib (first compound 1 µM), 1.14.

With EKVX, the relative viability with Ponatinib + Phenformin (first compound 0.002 µM) came out at 0.231; with Ponatinib + Phenformin (first compound 0.006325 µM), 0.25; with Ponatinib + Phenformin (first compound 0.06325 µM), 0.234; in the assay with Ponatinib + Phenformin (first compound 0.2 µM), 0.249; with Ponatinib + Luminespib (first compound 0.002 µM), 0.941; with Ponatinib + Luminespib (first compound 0.006325 µM), 0.959. The relative viability with Ponatinib + Luminespib (first compound 0.06325 µM) came to 0.954; with Ponatinib + Luminespib (first compound 0.2 µM), 0.871; with Ponatinib + Decitabine (first compound 0.002 µM) it was 0.329; in the assay with Ponatinib + Decitabine (first compound 0.006325 µM) it was 0.366; with Ponatinib + Decitabine (first compound 0.06325 µM), 0.378; in the assay with Ponatinib + Decitabine (first compound 0.2 µM), 0.357. Also, the relative viability in the assay with Pazopanib + Linsitinib (first compound 0.01 µM) worked out at 0.95; with Pazopanib + Linsitinib (first compound 0.03162 µM), 1.04; with Pazopanib + Linsitinib (first compound 0.1 µM), 0.869; in the assay with Pazopanib + Linsitinib (first compound 0.3162 µM), 1.03; with Pazopanib + Linsitinib (first compound 1 µM), 1.04.

With LXF-289, the relative viability with Ponatinib + Phenformin (first compound 0.002 µM) was found to be 0.513; in the assay with Ponatinib + Phenformin (first compound 0.006325 µM) it was 0.545; with Ponatinib + Phenformin (first compound 0.06325 µM) it was 0.525; in the assay with Ponatinib + Phenformin (first compound 0.2 µM), 0.445; with Ponatinib + Luminespib (first compound 0.002 µM) it was 0.598; in the assay with Ponatinib + Luminespib (first compound 0.006325 µM), 0.661. Besides, the relative viability in the assay with Ponatinib + Luminespib (first compound 0.06325 µM) worked out at 0.774; with Ponatinib + Luminespib (first compound 0.2 µM), 0.641; with Ponatinib + Decitabine (first compound 0.002 µM), 0.388; in the assay with Ponatinib + Decitabine (first compound 0.006325 µM) it was 0.359; with Ponatinib + Decitabine (first compound 0.06325 µM), 0.36; in the assay with Ponatinib + Decitabine (first compound 0.2 µM), 0.379. In addition, the relative viability amounted to 0.973 with Pazopanib + Linsitinib (first compound 0.01 µM); 0.957 with Pazopanib + Linsitinib (first compound 0.03162 µM); 0.921 in the assay with Pazopanib + Linsitinib (first compound 0.1 µM); 0.93 with Pazopanib + Linsitinib (first compound 0.3162 µM); 0.98 in the assay with Pazopanib + Linsitinib (first compound 1 µM).

ABC-1: the relative viability was found to be 0.215 with Ponatinib + Phenformin (first compound 0.002 µM); 0.23 with Ponatinib + Phenformin (first compound 0.006325 µM); 0.224 in the assay with Ponatinib + Phenformin (first compound 0.06325 µM); 0.263 with Ponatinib + Phenformin (first compound 0.2 µM); 0.558 in the assay with Ponatinib + Luminespib (first compound 0.002 µM); 0.42 with Ponatinib + Luminespib (first compound 0.006325 µM). Further, the relative viability was 0.745 with Ponatinib + Luminespib (first compound 0.06325 µM); 0.239 in the assay with Ponatinib + Luminespib (first compound 0.2 µM); 1 with Ponatinib + Decitabine (first compound 0.002 µM); 1.03 in the assay with Ponatinib + Decitabine (first compound 0.006325 µM); 1.16 in the assay with Ponatinib + Decitabine (first compound 0.06325 µM); 0.91 in the assay with Ponatinib + Decitabine (first compound 0.2 µM). The relative viability with Pazopanib + Linsitinib (first compound 0.01 µM) was 0.835; with Pazopanib + Linsitinib (first compound 0.03162 µM), 0.917; with Pazopanib + Linsitinib (first compound 0.1 µM), 0.751; with Pazopanib + Linsitinib (first compound 0.3162 µM), 0.738; in the assay with Pazopanib + Linsitinib (first compound 1 µM) it was 0.779.

Turning to NCI-H661, the relative viability with Ponatinib + Phenformin (first compound 0.002 µM) came out at 0.277; with Ponatinib + Phenformin (first compound 0.006325 µM) it was 0.258; in the assay with Ponatinib + Phenformin (first compound 0.06325 µM), 0.278; in the assay with Ponatinib + Phenformin (first compound 0.2 µM) it was 0.264; with Ponatinib + Luminespib (first compound 0.002 µM) it was 0.916; in the assay with Ponatinib + Luminespib (first compound 0.006325 µM), 0.903. Also, the relative viability with Ponatinib + Luminespib (first compound 0.06325 µM) was 0.898; with Ponatinib + Luminespib (first compound 0.2 µM) it was 0.927; in the assay with Ponatinib + Decitabine (first compound 0.002 µM) it was 0.524; in the assay with Ponatinib + Decitabine (first compound 0.006325 µM), 0.537; with Ponatinib + Decitabine (first compound 0.06325 µM), 0.562; with Ponatinib + Decitabine (first compound 0.2 µM), 0.515. For the same cell line, the relative viability with Pazopanib + Linsitinib (first compound 0.01 µM) was determined as 0.44; in the assay with Pazopanib + Linsitinib (first compound 0.03162 µM), 0.637; with Pazopanib + Linsitinib (first compound 0.1 µM), 0.581; with Pazopanib + Linsitinib (first compound 0.3162 µM), 0.541; with Pazopanib + Linsitinib (first compound 1 µM), 0.672.

Take NCI-H2085: the relative viability was 0.649 in the assay with Ponatinib + Phenformin (first compound 0.002 µM); 0.708 with Ponatinib + Phenformin (first compound 0.006325 µM); 0.682 in the assay with Ponatinib + Phenformin (first compound 0.06325 µM); 0.641 with Ponatinib + Phenformin (first compound 0.2 µM); 0.459 with Ponatinib + Luminespib (first compound 0.002 µM); 0.459 in the assay with Ponatinib + Luminespib (first compound 0.006325 µM). For the same cell line, the relative viability with Ponatinib + Luminespib (first compound 0.06325 µM) came to 0.446; with Ponatinib + Luminespib (first compound 0.2 µM), 0.432; with Ponatinib + Decitabine (first compound 0.002 µM), 0.541; in the assay with Ponatinib + Decitabine (first compound 0.006325 µM) it was 0.58; in the assay with Ponatinib + Decitabine (first compound 0.06325 µM), 0.613; with Ponatinib + Decitabine (first compound 0.2 µM), 0.565. Besides, the relative viability in the assay with Pazopanib + Linsitinib (first compound 0.01 µM) worked out at 0.818; in the assay with Pazopanib + Linsitinib (first compound 0.03162 µM), 0.862; with Pazopanib + Linsitinib (first compound 0.1 µM) it was 0.901; in the assay with Pazopanib + Linsitinib (first compound 0.3162 µM), 0.797; in the assay with Pazopanib + Linsitinib (first compound 1 µM), 0.887.

NCI-H1944: the relative viability was found to be 0.204 in the assay with Ponatinib + Phenformin (first compound 0.002 µM); 0.202 in the assay with Ponatinib + Phenformin (first compound 0.006325 µM); 0.209 in the assay with Ponatinib + Phenformin (first compound 0.06325 µM); 0.186 with Ponatinib + Phenformin (first compound 0.2 µM); 0.666 with Ponatinib + Luminespib (first compound 0.002 µM); 0.684 with Ponatinib + Luminespib (first compound 0.006325 µM). In addition, the relative viability worked out at 0.833 in the assay with Ponatinib + Luminespib (first compound 0.06325 µM); 0.743 with Ponatinib + Luminespib (first compound 0.2 µM); 0.422 in the assay with Ponatinib + Decitabine (first compound 0.002 µM); 0.433 with Ponatinib + Decitabine (first compound 0.006325 µM); 0.482 with Ponatinib + Decitabine (first compound 0.06325 µM); 0.43 with Ponatinib + Decitabine (first compound 0.2 µM). Besides, the relative viability worked out at 1.08 with Pazopanib + Linsitinib (first compound 0.01 µM); 1.28 in the assay with Pazopanib + Linsitinib (first compound 0.03162 µM); 1.15 with Pazopanib + Linsitinib (first compound 0.1 µM); 1.24 with Pazopanib + Linsitinib (first compound 0.3162 µM); 1.32 with Pazopanib + Linsitinib (first compound 1 µM).
